The series can be described thus: In vivo kinetic parameters in mouse after oral administration (plasma, LC/MS). The settings on record: for half-life: read-out: t½ (converted). The method, then: 6-Week old ddY male mice were starved for 12 hours, and then used for the experiment. To the mice, Am80 (3.30 mg/kg), 3-[4-[(5,6,7,8-tetrahydro-5,5,8,8-tetramethyl-2-naphthalenyl)carbamoyl]phenyl]propionic acid (protium compound, M700, 3.56 mg/kg), or 3-[4-[(5,6,7,8-tetrahydro-5,5,8,8-tetramethyl-2-naphthalenyl)carbamoyl]phenyl]propionic acid-2,2,3,3-d4 (deuterated propionic acid derivative, Y616, 3.60 mg/kg) was orally administered (the dose in terms of molar amount was 9.4 μmol/kg for all the compounds). A 94 mM solution of each compound in DMSO was prepared, and suspended in 0.5% methylcellulose so as to be diluted 100 times, and the suspension was orally administered at a dose of 10 ml/kg by using a 1-ml syringe and a catheter for oral administration.
After 15 minutes, 30 minutes, 1 hour, 2 hours, 3 hours, 6 hours, 12 hours, and 24 hours from the administration of each compound, whole blood was collected from the mouse abdominal aorta under diethyl ether anesthesia by using a heparin-treated glass syringe and a 26G hypodermic needle (five mice were used for each compound). The collected blood was centrifuged at 13,700×g and 4° C. for 5 minutes to separate the plasma, and the separated plasma was stored at −30° C.
The plasma (100 μL) was put into a 1.5-ml tube, and added with ethyl acetate (400 μl), the mixture was stirred, ultrasonicated for 1 minute, and centrifuged at 13,700×g and 20° C. for 3 minutes, and the supernatant was collected. The residue was added with ethyl acetate (400 μl), and the mixture was subjected once again to the aforementioned procedure. The collected supernatant was put into a 1.5-ml tube in an appropriate volume, and dried with nitrogen gas. The residue was dissolved in methanol (100 μl) to obtain a sample for LC/MS.
All the samples were used for […] in a volume of 5 μl. The LC/MS apparatus used was constituted with Waters 2695 Separations Module (Nihon Waters) and 3100 Mass Detector (Nihon Waters). Each compound was quantified by the absolute calibration curve method.

The mark [1] stands for this setting: mouse, 3.6 mg/kg, Administration of Y616, 3.60 mg/kg (9.4 μmol/kg) oral, ddY male mice, plasma, label = analyte measured.
Setting [2] is: mouse, 3.6 mg/kg, Administration of Y616, 3.60 mg/kg (9.4 μmol/kg) oral, ddY male mice, plasma, label = analyte measured, read-out: AUC.
Setting [3] is: mouse, 3.6 mg/kg, Administration of Y616, 3.60 mg/kg (9.4 μmol/kg) oral, ddY male mice, plasma, label = analyte measured, read-out: Tmax.
Where [4] appears, read: oral, mouse, after administration of the labelled prodrug.
[5] abbreviates: oral, mouse, compared with the protium compound.
The mark [6] stands for this setting: mouse, 3.3 mg/kg, Administration of AM80, 3.30 mg/kg (9.4 μmol/kg) oral, ddY male mice, plasma.
The mark [7] stands for this setting: mouse, Administration of M700, 3.56 mg/kg (9.4 μmol/kg) oral, ddY male mice, plasma, label = analyte measured.
[8] abbreviates: mouse, Administration of M700, 3.56 mg/kg (9.4 μmol/kg) oral, ddY male mice, plasma, label = analyte measured, read-out: AUC.
Where [9] appears, read: mouse, Administration of M700, 3.56 mg/kg (9.4 μmol/kg) oral, ddY male mice, plasma, label = analyte measured, read-out: Tmax.
[10] abbreviates: Administration of M700, 3.56 mg/kg (9.4 μmol/kg) oral, ddY male mice, plasma, label = analyte measured.

Like-named read-outs stand apart in the source and are kept apart here.

Usually Cmax stands for the maximum level reached in the sampled fluid or tissue. As a reminder, the AUC is the area under the concentration-time curve, a measure of exposure. A word on the Tmax: it is the time from dosing to the highest level. For `[2H]C([2H])(C(=O)O)C([2H])([2H])c1ccc(C(=O)Nc2ccc3c(c2)C(C)(C)CCC3(C)C)cc1` [Example Y616, 3-[4-[(5,6,7,8-tetrahydro-5,5,8,8-tetramethyl-2-naphthalenyl)carbamoyl]phenyl]propionic acid-2,2,3,3-d4], under setting [1], the concentration peaked (Cmax) at 1370 nM and the half-life was 49.8 min. Also, the AUC under setting [2] stood at 1.95 µM·h. Besides, the Tmax under setting [3] turned out to be 30 min. In addition, under setting [4], the “metabolic intermediate M1 generated” value is “markedly decreased” and the “metabolic intermediate M2 generated” value was “not observed”. For the same compound, under setting [5], the “AUC of the prodrug” value is “increased” and the “half-life (t½) of the prodrug” value was “extended”.
`CC1(C)CCC(C)(C)c2cc(NC(=O)c3ccc(C(=O)O)cc3)ccc21` [Am80, 4-[(5,6,7,8-tetrahydro-5,5,8,8-tetramethyl-2-naphthalenyl)carbamoyl]benzoic acid]: the maximum concentration (Cmax) is, setting by setting: under setting [6], 1870 nM; under setting [1], 930 nM; under setting [7], 1060 nM. Also, the AUC (mouse, 3.3 mg/kg, Administration of AM80, 3.30 mg/kg (9.4 μmol/kg) oral, ddY male mice, plasma, read-out: AUC) was determined as 2.8 µM·h; the AUC under setting [2] turned out to be 3.48 µM·h; the AUC under setting [8] amounted to 2.74 µM·h. Moreover, the Tmax was 30 min (mouse, 3.3 mg/kg, Administration of AM80, 3.30 mg/kg (9.4 μmol/kg) oral, ddY male mice, plasma, read-out: Tmax); 60 min under setting [3]; 60 min under setting [9]. For the same compound, the half-life is 48.6 min under setting [6], 133 min under setting [1] and 73.2 min under setting [7].
On to `CC1(C)CCC(C)(C)c2cc(NC(=O)c3ccc(C(O)CC(=O)O)cc3)ccc21` (centres unmarked) [Example M700-M2, 3-[4-[(5,6,7,8-tetrahydro-5,5,8,8-tetramethyl-2-naphthalenyl)carbamoyl]phenyl]-3-hydroxypropionic acid], for which, under setting [7], the Cmax is 20 nM and the half-life was 25.8 min. Besides, the area under the curve (AUC) under setting [8] came out at 0.02 µM·h. For the same compound, the Tmax under setting [9] is 30 min.
In the same order, the values of `CC1(C)CCC(C)(C)c2cc(NC(=O)c3ccc(CCC(=O)O)cc3)ccc21` [Example M700, 3-[4-[(5,6,7,8-tetrahydro-5,5,8,8-tetramethyl-2-naphthalenyl)carbamoyl]phenyl]propionic acid] are 1620 nM, 28.2 min, 1.32 µM·h and 30 min.
The term t½ denotes how long it takes for the measured level to halve. In the case of “4-[(5,6,7,8-tetrahydro-5,5,8,8-tetramethyl-2-naphthalenyl)carbamoyl]phenylcinnamic acid [Example M700-M1]”, under setting [10], the area under the curve (AUC) is 0.54 µM·h, the highest level (Cmax) was 710 nM, the Tmax came to 30 min and the t½ was found to be 28.2 min.

The values above are taken from patent US20140121407A1, “DEUTERATED PHENYLPROPIONIC ACID DERIVATIVE” (RESEARCH FOUNDATION ITSUU LABORATORY, priority 2011, published 2014).
